Like-named read-outs stand apart in the source and are kept apart here.
Key:
[1] = test system: HCT-15 human colon carcinoma with P-glycoprotein mediated resistance; test: Xenograft efficacy in nude mice; format: in vivo
Procedure: HCT-15 tumor bearing nude mice were treated with either 200 mg/kg Kevetrin IV on Days 7, 9, 11 or 22 mg/kg Taxol on Days 7, 9, 11 and 13 post tumor.

leukemias = test: Activity spectra, MTT assay; format: cell-based, human
Procedure: (§1) The indicated values are calculated as follows: log(IC50 individual cell line−IC50 average). Negative values indicate that the cell line is more sensitive than the average, whereas positive values indicate that the cell line is more resistant than the average. […] The activity of Kevetrin was more marked than that of cisplatin toward lung, head and neck, breast, ovary, and colon cell lines.

[2] = test system: head and neck cancer cell lines; test: Activity spectra, MTT assay; format: cell-based, human; conditions: three head and neck cancer cell lines
Procedure: as §1

[3] = test system: NCI-H1975 multi-drug resistant human lung carcinoma; test: Xenograft efficacy in nude mice; format: in vivo
Procedure: (§2) The cells were cultured in 10% FBS RPMI medium. The cells were obtained at passage 5 for further expansion for this efficacy study. Nude mice (Nu/Nu), both male (20 to 24 g) and female (19 to 22 g), were purchased at 6 to 8 weeks old from Charles River Laboratories. These mice were naïve at the beginning of the study and were identified by ear punching. The mice were left for five days to become acclimated to their new environment. Mice were implanted with human tumor cells in a 50:50 mix of RPMI:Matrigel subcutaneously in the right flank of each mouse. Dosing began when tumors reached an average volume of 100 mm^3.
(§3) The mice were observed daily for any adverse affects. Mice body weights were taken prior to treatment and every other day during and post treatment. If an animal became unwell, any treatment of that animal was suspended. If there was no recovery, the animal was sacrificed. […] Mice tumor size measurements were taken prior to treatment and every other day during and post treatment. The same scientist was responsible for taking the tumor measurements throughout the study.
Nude mice were implanted with 5×10^6 tumor cells in a 50:50 mix of RPMI:Matrigel subcutaneously in the right flank of each mouse. Dosing began when tumors reached an average volume of 100 mm^3, usually reached by day 14 post implant, and was carried out for 8 days. A necropsy was performed 41 days after treatment ended.
(§4) The dosing procedure began the day the mice were randomized and grouped. The dose was administered, as discussed in the following paragraph, on days 7, 9 and 11 following tumor implantation. Each dose was administered via the tail vein.
Efficacy of Kevetrin 200 mg/kg Days 7, 9, & 11 Against Taxol at 22 mg/kg on Days 7, 9, 11 & 13 in NCI-H1975 Multi-Drug Resistant Human Lung Carcinoma.
The animals were implanted subcutaneously with another multi-drug resistant human lung carcinoma and the compounds were injected IV as per the schedule. […] The tumor growth was delayed about 9 days for Taxol treated animals and about 24 days more than the untreated controls. The results are depicted in FIG. 9.

HT-29 colon carcinoma = test: Xenograft efficacy in nude mice; format: in vivo
Procedure: HT-29 tumor bearing nude mice were treated with either 200 mg/kg Kevetrin IV or 5-FU on Days 7, 9, and 11.
as §2, §3
(§5) Nude mice were implanted with 5×10^6 tumor cells in a 50:50 mix of RPMI:Matrigel subcutaneously in the right flank of each mouse. […]

[4] = test system: PC-3 human prostate cancer; test: Xenograft efficacy in nude mice; format: in vivo
Procedure: PC-3 tumor bearing nude mice were treated with either 200 mg/kg Kevetrin IV on Days 7, 9, 11 or 10 mg/kg cisplatin on Day 7.
as §2, §3, §5

HT-29 = test: Cytotoxicity of Kevetrin, cell viability (MTT); format: cell-based; conditions: Homo sapiens; HT-29 colon carcinoma; continuous exposure for three doubling times; read-out: IC50 Concentration
From the text: (§6) The results are set forth below.

SCC 15 = test: Cytotoxicity of Kevetrin, cell viability (MTT); format: cell-based; conditions: Homo sapiens; SCC 15 squamous cell carcinoma; continuous exposure for three doubling times; read-out: IC50 Concentration
From the text: as §6

SW-480 = test: Cytotoxicity of Kevetrin, cell viability (MTT); format: cell-based; conditions: Homo sapiens, SW480; SW-480 colon carcinoma; continuous exposure for three doubling times; read-out: IC50 Concentration
From the text: as §6

DU-145 = test: Cytotoxicity of Kevetrin, cell viability (MTT); format: cell-based; conditions: Homo sapiens; DU-145 prostate carcinoma; continuous exposure for three doubling times; read-out: IC50 Concentration
From the text: as §6

LnCap = test: Cytotoxicity of Kevetrin, cell viability (MTT); format: cell-based; conditions: Homo sapiens; LnCap prostate carcinoma; continuous exposure for three doubling times; read-out: IC50 Concentration
From the text: as §6

HCT-116 = test: Cytotoxicity of Kevetrin, cell viability (MTT); format: cell-based; conditions: Homo sapiens; HCT-116 colon carcinoma; continuous exposure for three doubling times; read-out: IC50 Concentration
From the text: as §6

SKOV-3 = test: Cytotoxicity of Kevetrin, cell viability (MTT); format: cell-based; conditions: Homo sapiens, SK-OV-3; SKOV-3 ovarian carcinoma; continuous exposure for three doubling times; read-out: IC50 Concentration
From the text: as §6

Colo 205 = test: Cytotoxicity of Kevetrin, cell viability (MTT); format: cell-based; conditions: Homo sapiens; Colo 205 colon carcinoma; continuous exposure for three doubling times; read-out: IC50 Concentration
From the text: as §6

MCF-7 = test: Cytotoxicity of Kevetrin, cell viability (MTT); format: cell-based; conditions: Homo sapiens, MCF7; MCF-7 breast carcinoma; continuous exposure for three doubling times; read-out: IC50 Concentration
From the text: as §6

SCC-61 = test: Cytotoxicity of Kevetrin, cell viability (MTT); format: cell-based; conditions: Homo sapiens; SCC-61 squamous cell carcinoma; continuous exposure for three doubling times; read-out: IC50 Concentration
From the text: as §6

[5] = test system: MDA-MB-231 human breast carcinoma; test: Xenograft efficacy in nude mice; format: in vivo
Procedure: MDA-MB-231 human breast carcinoma bearing mice were treated with 200 mg/kg Kevetrin IV days 7, 9, and 11 compared to 22 mg/kg Taxol IV Days 7, 9, 11 and 13.
as §2, §3, §5

[6] = test system: all tumor cell lines tested; test: Activity spectra, MTT assay; format: cell-based, human; conditions: read-out: average IC50 for all cell lines tested
Procedure: The indicated values are calculated as follows: log(IC50 individual cell line−IC50 average). Negative values indicate that the cell line is more sensitive than the average, whereas positive values indicate that the cell line is more resistant than the average.
as §1

[7] = test system: DU-145, HCT-116, or HT-29 carcinoma cells; test: Time dependence of Kevetrin cytotoxicity, MTT assay; format: cell-based, human; conditions: exposure 5 minutes to 120 hours; DU-145, HCT-116, HT-29
Procedure: Human carcinoma cells were exposed to different concentrations of Kevetrin for 5, 10, 20, 30, or 45 minutes or 1, 2, 6, 24, or 120 hours. Cellular viability expressed as IC50 was plotted verses time of Kevetrin exposure as measured using the MTT assay.
To determine the influence of exposure time on the cytotoxic effects of Kevetrin, DU-145, HCT-116, or HT-29 carcinoma cells were exposed to different concentrations of Kevetrin for 5, 10, 20, 30, or 45 minutes or 1, 2, 6, 24, or 120 hours. […] The time dependence was particularly dramatic for exposure times […]. In contrast, extending the drug exposure time beyond 24 hours had no influence on the cytotoxicity.

[8] = Weight loss due to Kevetrin in tumor bearing mice; format: in vivo
Procedure: Animal weights of mice following treatment with either 100 or 200 mg/kg Kevetrin IV on Day 0 are shown.
as §3, §4
When Kevetrin was administered intravenously (IV) to animals bearing tumors, the weight loss due to the administration of the compound was within acceptable limits. […] Both these concentrations may be used to establish the efficacy of Kevetrin.

[9] = test system: A549 multi-drug resistant human lung carcinoma; test: Xenograft efficacy in nude mice; format: in vivo
Procedure: Nude mice were implanted with 5×10^6 tumor cells in a 50:50 mix of RPMI:Matrigel subcutaneously in the right flank of each mouse. Dosing began when tumors reached an average volume of 100 mm^3, usually reached by day 14 post implant, and was carried out for 8 days. […]

malignant glioma cells = test: Viability of human tumor cell lines; format: cell-based
From the text: as §6

[10] = 200 mg/kg Kevetrin IV days 7, 9, 11
[11] = Taxol 22 mg/kg IV days 7, 9, 11, 13

## Cl.N#CCCCSC(=N)N [Kevetrin, S-(3-cyanopropyl)isothiourea hydrochloride]
[1]; [10]
  tumor growth delay more than the Taxol treated and the untreated control: 15 days
leukemias
  activity toward leukemias: comparatively limited activity
[2]
  activity toward head and neck cancer cell lines: showed activity toward all of the cell lines
[3]; [10]
  tumor growth delay more than the untreated controls: about 24 days
HT-29 colon carcinoma; [10]
  tumor growth delay more than the untreated control: 33 days
HT-29 colon carcinoma; 200 mg/kg Kevetrin IV days 7, 9, 11 vs 5-FU
  tumor growth delay more than the 5-FU treated animals: 10 days
[4]; [10]
  tumor growth delay more than the untreated control: 34 days
[4]; 200 mg/kg Kevetrin IV days 7, 9, 11 vs 10 mg/kg Cisplatin IP day 7
  tumor growth delay more than the Cisplatin treated animals: 8 days
HT-29
  IC50: 29 µg/mL
SCC 15
  IC50: 12 µg/mL
SW-480
  IC50: 62 µg/mL
DU-145
  IC50: 64 µg/mL
LnCap
  IC50: 52 µg/mL
HCT-116
  IC50: 21 µg/mL
SKOV-3
  IC50: 58 µg/mL
Colo 205
  IC50: 6 µg/mL
MCF-7
  IC50: 68 µg/mL
SCC-61
  IC50: 64 µg/mL
[5]; [10]
  tumor growth delay more than the untreated control: 32 days
[5]; 200 mg/kg Kevetrin IV days 7, 9, 11 vs 22 mg/kg Taxol IV days 7, 9, 11, 13
  tumor growth delay more than the Taxol treated animals: 12 days
[6]; Homo sapiens
  IC50: 0.49 µM
[7]
  time dependence of cytotoxicity: Clear time-dependent cytotoxic effects
[8]; 100 mg/kg intravenously on days 7, 9, and 11, tumor bearing mice
  weight loss of the body weight: 6.8%
[8]; 200 mg/kg intravenously on days 7, 9, and 11, tumor bearing mice
  weight loss of the body weight: 9.3%
[9]; [10]
  tumor growth delay more than the untreated controls: about 26 days
Malignant glioma cells
  IC50: ~0.03 µg/mL

## CC(=O)O[C@H]1C(=O)[C@@]2(C)[C@H]([C@H](OC(=O)c3ccccc3)[C@]3(O)C[C@H](OC(=O)[C@H](O)[C@@H](NC(=O)c4ccccc4)c4ccccc4)C(C)=C1C3(C)C)[C@]1(OC(C)=O)CO[C@@H]1C[C@@H]2O [Taxol, reference compound]
[1]; [11]
  effect on the cancer (in words): little effect
[3]; [11]
  effect on the cancer (in words): limited effect
  tumor growth delay: about 9 days
[9]; [11]
  effect on the cancer (in words): no effect

## N.N.[Cl][Pt][Cl] [cisplatin, reference compound]
[2]
  activity toward head and neck cancer cell lines: active toward one of the three cell lines
[6]; MTT assay, continuous exposure for three doubling times
  IC50: 2.1 µM

From patent US8338454B2, “Nitrile derivatives and their pharmaceutical use and compositions” (Cellceutix Corporation, priority 2009, dated 2012)
